Assays:
PI3Kγ = PI3Kγ (Homo sapiens, UniProt P48736); assay: PI3K-gamma fluorescence polarization assay; format: biochemical; details: read-out: PI3Kγ Median IC50
mTOR = mTOR (Homo sapiens, UniProt P42345); assay: mTOR enzyme assay (DELFIA format, His6-S6K substrate); format: biochemical; details: read-out: mTOR Kinase Median IC50
PI3Kα = PI3Kα (Homo sapiens, UniProt P42336); assay: PI3K-alpha fluorescence polarization assay; format: biochemical; details: read-out: PI3Kα Median IC50
Sequence of PI3Kα (P42336 whole entry, species assumed): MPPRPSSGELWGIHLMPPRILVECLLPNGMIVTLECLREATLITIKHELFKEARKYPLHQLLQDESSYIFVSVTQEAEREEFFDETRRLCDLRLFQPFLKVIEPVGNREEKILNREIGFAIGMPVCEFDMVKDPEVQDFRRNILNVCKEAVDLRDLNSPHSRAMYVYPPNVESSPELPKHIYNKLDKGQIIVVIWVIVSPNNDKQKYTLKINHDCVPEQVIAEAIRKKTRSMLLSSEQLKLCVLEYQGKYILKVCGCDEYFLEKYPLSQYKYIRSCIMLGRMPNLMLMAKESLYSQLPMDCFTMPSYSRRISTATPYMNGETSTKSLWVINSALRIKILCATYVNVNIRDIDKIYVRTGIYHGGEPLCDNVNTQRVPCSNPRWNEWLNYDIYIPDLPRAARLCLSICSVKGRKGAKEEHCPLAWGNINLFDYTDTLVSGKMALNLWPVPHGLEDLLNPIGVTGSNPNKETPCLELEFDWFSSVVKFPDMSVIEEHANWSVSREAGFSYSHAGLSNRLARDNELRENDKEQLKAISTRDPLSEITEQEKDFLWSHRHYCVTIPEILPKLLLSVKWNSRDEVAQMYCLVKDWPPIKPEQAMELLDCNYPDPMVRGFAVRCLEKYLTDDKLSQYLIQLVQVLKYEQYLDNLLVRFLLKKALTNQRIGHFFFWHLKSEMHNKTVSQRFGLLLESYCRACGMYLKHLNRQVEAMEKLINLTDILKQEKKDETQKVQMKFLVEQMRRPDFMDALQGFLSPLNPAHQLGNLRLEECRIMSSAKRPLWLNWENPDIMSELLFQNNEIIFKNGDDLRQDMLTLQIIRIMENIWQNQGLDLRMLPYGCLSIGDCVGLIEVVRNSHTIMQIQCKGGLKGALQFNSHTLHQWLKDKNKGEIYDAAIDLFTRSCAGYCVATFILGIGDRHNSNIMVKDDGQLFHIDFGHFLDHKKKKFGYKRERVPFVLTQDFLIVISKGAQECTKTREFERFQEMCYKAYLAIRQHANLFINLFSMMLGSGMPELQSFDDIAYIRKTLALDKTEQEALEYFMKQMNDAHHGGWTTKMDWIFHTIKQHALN
Sequence of PI3Kα (P27986 whole entry partner, species assumed): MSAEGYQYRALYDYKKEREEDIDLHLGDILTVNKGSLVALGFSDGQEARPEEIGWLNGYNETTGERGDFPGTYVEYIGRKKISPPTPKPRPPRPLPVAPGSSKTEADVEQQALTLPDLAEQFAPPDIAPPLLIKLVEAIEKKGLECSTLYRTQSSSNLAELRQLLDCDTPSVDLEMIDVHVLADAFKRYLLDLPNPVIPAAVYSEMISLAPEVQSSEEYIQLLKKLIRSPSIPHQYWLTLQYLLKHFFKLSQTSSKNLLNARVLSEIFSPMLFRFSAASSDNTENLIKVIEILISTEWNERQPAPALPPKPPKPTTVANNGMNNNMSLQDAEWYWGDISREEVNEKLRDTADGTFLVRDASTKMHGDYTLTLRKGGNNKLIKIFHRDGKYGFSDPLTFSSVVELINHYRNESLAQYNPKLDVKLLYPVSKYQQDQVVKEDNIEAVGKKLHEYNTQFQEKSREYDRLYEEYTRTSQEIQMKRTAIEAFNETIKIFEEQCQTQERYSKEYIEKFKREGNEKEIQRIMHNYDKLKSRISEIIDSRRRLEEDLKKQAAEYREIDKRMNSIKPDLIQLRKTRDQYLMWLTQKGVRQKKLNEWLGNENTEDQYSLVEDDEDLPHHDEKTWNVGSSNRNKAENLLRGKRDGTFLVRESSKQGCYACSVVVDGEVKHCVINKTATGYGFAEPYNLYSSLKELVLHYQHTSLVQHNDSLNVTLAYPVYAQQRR

Sequence of PI3Kγ (P48736 whole entry, species assumed): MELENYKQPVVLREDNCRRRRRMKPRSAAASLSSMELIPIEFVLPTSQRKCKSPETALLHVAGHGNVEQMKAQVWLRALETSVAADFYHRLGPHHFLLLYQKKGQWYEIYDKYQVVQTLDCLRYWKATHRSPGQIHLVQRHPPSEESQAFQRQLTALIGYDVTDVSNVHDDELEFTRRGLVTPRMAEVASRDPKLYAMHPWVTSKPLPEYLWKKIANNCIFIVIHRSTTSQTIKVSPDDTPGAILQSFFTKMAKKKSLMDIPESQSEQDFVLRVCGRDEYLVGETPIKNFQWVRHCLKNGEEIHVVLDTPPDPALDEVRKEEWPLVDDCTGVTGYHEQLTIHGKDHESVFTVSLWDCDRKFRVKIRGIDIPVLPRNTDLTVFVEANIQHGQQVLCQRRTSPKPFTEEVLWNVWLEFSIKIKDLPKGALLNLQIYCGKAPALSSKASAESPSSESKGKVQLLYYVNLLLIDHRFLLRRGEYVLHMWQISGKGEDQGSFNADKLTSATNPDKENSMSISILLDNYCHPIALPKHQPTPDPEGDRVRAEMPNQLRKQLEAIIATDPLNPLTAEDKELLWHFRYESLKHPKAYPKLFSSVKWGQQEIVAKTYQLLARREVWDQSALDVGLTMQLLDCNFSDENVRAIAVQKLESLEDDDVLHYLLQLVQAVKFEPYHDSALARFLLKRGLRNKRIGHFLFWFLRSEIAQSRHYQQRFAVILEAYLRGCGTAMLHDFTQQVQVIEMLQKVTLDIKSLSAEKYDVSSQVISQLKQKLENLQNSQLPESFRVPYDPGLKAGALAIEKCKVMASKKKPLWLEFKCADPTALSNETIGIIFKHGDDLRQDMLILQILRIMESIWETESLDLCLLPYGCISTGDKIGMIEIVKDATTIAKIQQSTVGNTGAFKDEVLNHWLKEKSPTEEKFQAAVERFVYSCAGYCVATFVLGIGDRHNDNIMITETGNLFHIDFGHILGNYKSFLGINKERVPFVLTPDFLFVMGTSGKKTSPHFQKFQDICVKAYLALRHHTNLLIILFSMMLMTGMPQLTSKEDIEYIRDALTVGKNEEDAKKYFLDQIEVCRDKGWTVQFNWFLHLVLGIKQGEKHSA

Structure (SMILES)	IC50 (PI3Kγ)	IC50 (mTOR)	melting point	IC50 (PI3Kα)
Cn1cc(/C=C2\Oc3cccc(O)c3C2=O)c2c(-c3ccccc3)ccnc21 [Compound 31, (2Z)-4-hydroxy-2-[(1-methyl-4-phenyl-1H-pyrrolo[2,3-b]pyridin-3-yl)methylene]-1-benzofuran-3(2H)-one]	187 nM	3.5 nM	274 to 275 °C	89 nM
Cn1cc(/C=C2\Oc3cc(O)cc(F)c3C2=O)c2c(-c3ccccc3)ccnc21 [Compound 32, (2Z)-4-fluoro-6-hydroxy-2-[(1-methyl-4-phenyl-1H-pyrrolo[2,3-b]pyridin-3-yl)methylene]-1-benzofuran-3(2H)-one]	1050 nM	46.5 nM	325 to 327 °C (dec.)	98 nM
CNC(=O)Nc1ccc2c(c1)C(=O)/C(=C/c1cn(C)c3nccc(-c4ccccc4)c13)O2 [Compound 38, 1-methyl-3-{(2Z)-2-[(1-methyl-4-phenyl-1H-pyrrolo[2,3-b]pyridin-3-yl)methylene]-3-oxo-2,3-dihydro-1-benzofuran-5-yl}urea]	1570 nM	37 nM	265 to 270 °C (dec.)	234 nM
CN1CC2CC1CN2c1ccnc2c1c(/C=C1\Oc3cccc(O)c3C1=O)cn2C (stereo not shown) [Compound 153, (2Z)-4-hydroxy-2-{[1-methyl-4-(5-methyl-2,5-diazabicyclo[2.2.1]hept-2-yl)-1H-pyrrolo[2,3-b]pyridin-3-yl]methylidene}-1-benzofuran-3(2H)-one]	148 nM	16 nM	220 °C (dec.)	

The remaining lines, values ahead:

IC50 (PI3Kγ)	IC50 (mTOR)	melting point	IC50 (PI3Kα)	Structure (SMILES)
2380 nM	19 nM	314 to 316 °C (dec.)	219 nM	Cn1cc(/C=C2\Oc3cc(O)ccc3C2=O)c2c(-c3ccccc3)ccnc21 [Compound 30, (2Z)-6-hydroxy-2-[(1-methyl-4-phenyl-1H-pyrrolo[2,3-b]pyridin-3-yl)methylene]-1-benzofuran-3(2H)-one]
4000 nM	> 4000 nM	227 to 229 °C	6860 nM	Cn1cc(/C=C2\Oc3ccc(Br)cc3C2=O)c2c(-c3ccccc3)ccnc21 [Compound 37, (2Z)-5-bromo-2-[(1-methyl-4-phenyl-1H-pyrrolo[2,3-b]pyridin-3-yl)methylene]-1-benzofuran-3(2H)-one]
104 nM	5.7 nM	308 to 310 °C	106 nM	Cn1cc(/C=C2\Oc3cc(O)cc(O)c3C2=O)c2c(C#Cc3ccccc3)ccnc21 [Compound 39, (2Z)-4,6-dihydroxy-2-{[1-methyl-4-(phenylethynyl)-1H-pyrrolo[2,3-b]pyridin-3-yl]methylene}-1-benzofuran-3(2H)-one]
282 nM	0.6 nM	322 to 324 °C	68 nM	Cn1cc(/C=C2\Oc3cc(O)cc(O)c3C2=O)c2c(N3CCCCC3)ccnc21 [Compound 40, (2Z)-4,6-dihydroxy-2-[(1-methyl-4-piperidin-1-yl-1H-pyrrolo[2,3-b]pyridin-3-yl)methylene]-1-benzofuran-3(2H)-one]
> 10000 nM	22.5 nM	352 to 354 °C (dec.)	129 nM	Cn1cc(/C=C2\Oc3ccc(O)cc3C2=O)c2c(-c3ccccc3)ccnc21 [Compound 42, (2Z)-5-hydroxy-2-[(1-methyl-4-phenyl-1H-pyrrolo[2,3-b]pyridin-3-yl)methylene]-1-benzofuran-3(2H)-one]
	4.3 nM	340 °C		Cn1cc(/C=C2\Oc3cc(O)cc(O)c3C2=O)c2c(-c3cncnc3)ccnc21 [Compound 62, (2Z)-4,6-dihydroxy-2-[(1-methyl-4-pyrimidin-5-yl-1H-pyrrolo[2,3-b]pyridin-3-yl)methylene]-1-benzofuran-3(2H)-one]
